Test results published in the supplement of paper PMC11208160.

assay: recombinant UMI read abundance after kanamycin selection (control-corrected) (log10(CPM+1)); higher = more efficient recombination; extreme values may be limits of the assay; sequences stand for … in AGTGCAGAGAAAATCGGCCAGTTTTCTCTGCCTGCAGTCCGCATGCCGTGGGACCCCTTGGGTTCTAACCTGTTGCCTAGATTTATGCAGCGGACTGCCTTTCTCCCAAAGTGATAAACCGG…AGGTTGGTTTCACT; site = the 11-nt donor
Description: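 Pooled E. coli donor-specificity screen for the IS621 bridge recombinase. Each library member carries a reprogrammed 11-nt donor and a full-length LE bridge RNA expressed in cis from the natural promoter, with a paired donor-binding loop (8-nt LDG + 4-nt RDG) and a target-binding loop fixed to T5. It is co-electroporated with a T5 target plasmid; recombinase is induced with 0.07 mM IPTG and recombinants are selected on kanamycin. UMIs are counted as CPM, averaged over two biological replicates and corrected by the unselected control. Molecule = full bridge RNA written as DNA, built from the T5 scaffold: LDG = donor specificity nt 1-8, RDG = reverse complement of nt 8-11.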
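Note: IS621 bridge recombinase in Escherichia coli cells against a fixed T5 target plasmid.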

In order of falling “recombinant UMI read abundance (log10)” value:
1. AATGGGTCATGGACCGGTTTTCCCGGTAATCCGTATTTGAC (site AATGGGTCTGT)  2.68
2. AATTGCTCATGGACCGGTTTTCCCGGTAATCCGTATTTGCC (site AATTGCTCTGG)  2.51
3. AATGCGTCATGGACCGGTTTTCCCGGTAATCCGTATTTGAC (site AATGCGTCTGT)  2.03
4. AATTATGCATGGACCGGTTTTCCCGGTAATCCGTATTTGGT (site AATTATGCTAC)  2.02
5. AATGTGTCATGGACCGGTTTTCCCGGTAATCCGTATTTGAG (site AATGTGTCTCT)  1.82
6. AATGTGTCATGGACCGGTTTTCCCGGTAATCCGTATTTGAT (site AATGTGTCTAT)  1.66
7. AATTATGCATGGACCGGTTTTCCCGGTAATCCGTATTTGGA (site CATTATGCTTC)  1.51
8. AATGTAACATGGACCGGTTTTCCCGGTAATCCGTATTTGCG (site AATGTAACTCG)  1.48
9. AATGTGTCATGGACCGGTTTTCCCGGTAATCCGTATTTGAG (site AATGTGTCTAT)  1.43
10. AATTATGCATGGACCGGTTTTCCCGGTAATCCGTATTTGGA (site AAATATGCTTC)  1.34
11. AATTATGCATGGACCGGTTTTCCCGGTAATCCGTATTTGGA (site ATTTATGCTTC)  1.25
12. AATTATGCATGGACCGGTTTTCCCGGTAATCCGTATTTGGA (site AAGTATGCTTC)  1.19
13. AATTATGCATGGACCGGTTTTCCCGGTAATCCGTATTTGGA (site AGTTATGCTTC)  1.09
14. AATGGTGCATGGACCGGTTTTCCCGGTAATCCGTATTTGGT (site AATGGTGCTAC)  1.04
15. AATTATGCATGGACCGGTTTTCCCGGTAATCCGTATTTGGA (site AACTATGCTTC)  1.02
16. AATTATGCATGGACCGGTTTTCCCGGTAATCCGTATTTGGA (site GATTATGCTTC)  0.983
17. AATTATGCATGGACCGGTTTTCCCGGTAATCCGTATTTGGA (site AATTATTCTTC)  0.941
18. AATTATGCATGGACCGGTTTTCCCGGTAATCCGTATTTGGA (site ACTTATGCTTC)  0.937
19. AATGTACCATGGACCGGTTTTCCCGGTAATCCGTATTTGCT (site AATGTATCTAG)  0.926
20. AATTATGCATGGACCGGTTTTCCCGGTAATCCGTATTTGGA (site TATTATGCTTC)  0.862
21. AATGTGTCATGGACCGGTTTTCCCGGTAATCCGTATTTGAG (site AATGTGTCTTT)  0.832
22. AATGGGTCATGGACCGGTTTTCCCGGTAATCCGTATTTGAC (site AATGCGTCTGT)  0.826
23. AATTATGCATGGACCGGTTTTCCCGGTAATCCGTATTTGGA (site AATTATACTTC)  0.816
24. AATGTGTCATGGACCGGTTTTCCCGGTAATCCGTATTTGAG (site AATGTGTCTGT)  0.801
25. AATTATGCATGGACCGGTTTTCCCGGTAATCCGTATTTGGA (site AATTAAGCTTC)  0.54
26. AATTATGCATGGACCGGTTTTCCCGGTAATCCGTATTTGGA (site AATAATGCTTC)  0.535
27. AATTATGCATGGACCGGTTTTCCCGGTAATCCGTATTTGGA (site AATGATGCTTC)  0.482
28. AATGTAACATGGACCGGTTTTCCCGGTAATCCGTATTTGTT (site AATGTAACTAG)  0.466
29. AATTATGCATGGACCGGTTTTCCCGGTAATCCGTATTTGGA (site AATTATCCTTC)  0.447
30. AATTATGCATGGACCGGTTTTCCCGGTAATCCGTATTTGGA (site AATCATGCTTC)  0.445
31. AATTATGCATGGACCGGTTTTCCCGGTAATCCGTATTTGGA (site AATTACGCTTC)  0.439
32. AATTGGGCATGGACCGGTTTTCCCGGTAATCCGTATTTGAA (site AATTGGGCTTT)  0.399
33. AATTATGCATGGACCGGTTTTCCCGGTAATCCGTATTTGGA (site AATTAGGCTTC)  0.38
34. AATTATGCATGGACCGGTTTTCCCGGTAATCCGTATTTGGA (site AATTATGCTTC)  0.373
35. AATTATGCATGGACCGGTTTTCCCGGTAATCCGTATTTGGA (site AATTATGCTTT)  0.359
36. AATTATCCATGGACCGGTTTTCCCGGTAATCCGTATTTGGA (site AATTATTCTTC)  0.322
37. AATGTAACATGGACCGGTTTTCCCGGTAATCCGTATTTGTT (site AATGTAACTAA)  0.321
38. AATTATGCATGGACCGGTTTTCCCGGTAATCCGTATTTGGA (site AATTCTGCTTC)  0.313
39. AATGCGTCATGGACCGGTTTTCCCGGTAATCCGTATTTGAC (site AATGTGTCTGT)  0.269
40. AATTATGCATGGACCGGTTTTCCCGGTAATCCGTATTTGGA (site AATTGTGCTTC)  0.266
41. AATGGGTCATGGACCGGTTTTCCCGGTAATCCGTATTTGAC (site AATGAGTCTGT)  0.146
42. AATTATCCATGGACCGGTTTTCCCGGTAATCCGTATTTGGA (site AATTATACTTC)  0.126
43. AATGTAACATGGACCGGTTTTCCCGGTAATCCGTATTTGTT (site AATGTAACTAT)  0.0338
44. AATTATGCATGGACCGGTTTTCCCGGTAATCCGTATTTGGA (site AATTATGCTCC)  0.0288
45. AATTATGCATGGACCGGTTTTCCCGGTAATCCGTATTTGGA (site AATTATGCTAC)  0.0199
46. AATTATCCATGGACCGGTTTTCCCGGTAATCCGTATTTGGA (site AATTATGCTTC)  0.0173
47. AATTAGCCATGGACCGGTTTTCCCGGTAATCCGTATTTGAG (site AATTAGCCTCT)  0.017
48. AATTATGCATGGACCGGTTTTCCCGGTAATCCGTATTTGGT (site AATTATGCTTC)  0.0116
49. AATGTGTCATGGACCGGTTTTCCCGGTAATCCGTATTTGAT (site AATGTGTCTTT)  0.0089
50. AATGTAACATGGACCGGTTTTCCCGGTAATCCGTATTTGTT (site AATGTAACTAC)  0.00716
51. AATTATGCATGGACCGGTTTTCCCGGTAATCCGTATTTGGT (site AATTATGCTCC)  0.00684
52. AATTATGCATGGACCGGTTTTCCCGGTAATCCGTATTTGGA (site AATTTTGCTTC)  0.00678
53. AATTATGCATGGACCGGTTTTCCCGGTAATCCGTATTTGGA (site AATTATGCTTA)  0.00642
54. AATGTACCATGGACCGGTTTTCCCGGTAATCCGTATTTGCT (site AATGTAGCTAG)  0.00499
55. AATGTGTCATGGACCGGTTTTCCCGGTAATCCGTATTTGAT (site AATGTGTCTCT)  0.003
56. AATGTAACATGGACCGGTTTTCCCGGTAATCCGTATTTGCG (site AATGTAACTTG)  0.00267
57. AATGCGTCATGGACCGGTTTTCCCGGTAATCCGTATTTGAC (site AATGAGTCTGT)  0
58. AATGCGTCATGGACCGGTTTTCCCGGTAATCCGTATTTGAC (site AATGGGTCTGT)  0
59. AATGGGTCATGGACCGGTTTTCCCGGTAATCCGTATTTGAC (site AATGTGTCTGT)  0
60. AATGTAACATGGACCGGTTTTCCCGGTAATCCGTATTTGCG (site AATGTAACTAG)  0
61. AATGTAACATGGACCGGTTTTCCCGGTAATCCGTATTTGCG (site AATGTAACTGG)  0
62. AATGTACCATGGACCGGTTTTCCCGGTAATCCGTATTTGCT (site AATGTAACTAG)  0
63. AATGTACCATGGACCGGTTTTCCCGGTAATCCGTATTTGCT (site AATGTACCTAG)  0
64. AATGTGTCATGGACCGGTTTTCCCGGTAATCCGTATTTGAT (site AATGTGTCTGT)  0
65. AATTATCCATGGACCGGTTTTCCCGGTAATCCGTATTTGGA (site AATTATCCTTC)  0
66. AATTATGCATGGACCGGTTTTCCCGGTAATCCGTATTTGGA (site AATTATGCTGC)  0
67. AATTATGCATGGACCGGTTTTCCCGGTAATCCGTATTTGGA (site AATTATGCTTG)  0
68. AATTATGCATGGACCGGTTTTCCCGGTAATCCGTATTTGGT (site AATTATGCTGC)  0
69. AATTTGTCATGGACCGGTTTTCCCGGTAATCCGTATTTGAC (site AATATGTCTGT)  0
70. AATTTGTCATGGACCGGTTTTCCCGGTAATCCGTATTTGAC (site AATCTGTCTGT)  0
71. AATTTGTCATGGACCGGTTTTCCCGGTAATCCGTATTTGAC (site AATGTGTCTGT)  0
72. AATTTGTCATGGACCGGTTTTCCCGGTAATCCGTATTTGAC (site AATTTGTCTGT)  0
